Entries after “also recorded” stand apart in the source; their conditions may differ. Where two headings read alike, the source gives them in different places.
Legend:
Assay type in all cases: cell-based, Plasmodium falciparum
[1] = tested on: CQ-sensitive 3D7 strain of P. falciparum; assay: SYBR green I-based parasite growth inhibition assay, 3D7 strain; conditions: for EC50: 72 h, read-out: EC50
[2] = tested on: asexual blood stages of P. falciparum; assay: Life cycle stage specific action by microscopy of Giemsa-stained thin smears; conditions: 10 μM, 24 h, listed as (±)-moxiquindole
Procedure: The life cycle stage specific action of (±)-moxiquindole was determined by treatment of parasites at different time points followed by microscopic analysis of Giemsa-stained thin blood smears. Stage proportions were calculated for each asexual parasite stage in the drug treated wells relative to the same stage in the negative control wells.
The inhibitory effects of active compounds or reference drugs on parasite development and schizont rupture were determined by quantitative light microscopy as previously described (Lee et al., 2015). Briefly, synchronized cultures (1.5% hematocrit and 3% parasitemia) at different time-points (early rings, mid trophozoites and schizonts) were treated with either test compound or controls at 10 μM final concentration for 24 h under regular culture conditions. Following treatment, Giemsa-stained thin smears were prepared and parasites were counted in 1,000 erythrocytes per treatment. Stage proportions in test wells relative to solvent control wells were calculated and used to assess the in vitro effects of each compound on trophozoites and schizont development as well as merozoite egress and invasion.

[3] = tested on: vacuolar lipid dynamics in P. falciparum; assay: Effect on vacuolar lipid dynamics (Oil Red O staining); conditions: trophozoite stage parasites, 24 h
Procedure: Because cellular vacuolation may result from perturbation of intracellular lipid content, we investigated the effect of (±)-moxiquindole on vacuolar lipid dynamics using fluorescent Oil red O as lipid stain.
The effect of the compounds on intracellular lipid dynamics was assessed by measurement of intracellular lipid content using Oil Red O. Briefly, early rings or late trophozoite stage parasites (30 hpi) were treated with the compounds or controls for 24 h under regular culture conditions. Following treatment, inhibitors were removed by centrifugation at 2500 rpm for 5 min and pellets were washed in equal volumes of 1×PBS. The parasites were fixed with 4% paraformaldehyde for 30 min at room temperature and pelleted at 2500. Three volumes of Oil Red O (ORO) stock solution (5 mg/mL in 100% isopropanol) were diluted in two volumes of distilled water and filtered prior to use. About 100 μL of the ORO were added to parasite pellets in the tube and incubated for 30 minutes. Parasites were pelleted and washed twice in distilled water. Thereafter, parasites were deposited on pre-cleaned coverslips and air dried. Dried coverslips were mounted in DAPI antifade reagent onto cleaned slides, air dried and viewed under a 100× oil immersion lens and images acquired using a Leica DM1000 fluorescence microscope suite (LAS version 4.5).

[4] = tested on: multidrug resistant strain Dd2; assay: SYBR green I-based parasite growth inhibition assay, Dd2 strain

In the case of `COc1cc2c(cc1OC)C1(NCC2)C(=O)Nc2ccc(Cl)cc21` (stereo not shown) [Compound 8b], the “dose-response curve within the tested drug concentration range” value ([1]; Pf 3D7, 0.078 μM to 10 μM) is reported as “complete sigmoidal dose-response curve”, the EC50 ([1]; Pf 3D7, 0.078 μM to 10 μM, listed as (±)-moxiquindole) is reported as 1850 nM and the EC50 ([1]; Pf 3D7, 0.078 μM to 10 μM) is reported as under 2000 nM. The “parasite growth inhibition in primary assays” value ([1]; primary screening at 10 μM, Pf 3D7, 72 h) was about 97%, the “stage specific action on asexual blood stages (ring, trophozoite, schizont)” value ([2]; treated at early ring, mid-trophozoite or mid-schizont) was “multi-stage active; also recorded: exhibits inhibitory activities against ring-to-trophozoite development, trophozoite-to-schizont development and schizont rupture” and the “vacuolation in treated parasites” value ([2]; Giemsa-stained thin smears) was “abnormal vacuolation; also recorded: induced vacuolation in parasites”. The “neutral lipid bodies / vacuolar lipid uptake (Oil red O)” value [3] was “devoid of neutral lipid bodies”, the cross-resistance index [4] was 0.935 and the EC50 ([4]; Pf Dd2) was 1730 nM. For the same compound, the EC50 ([4]; Pf Dd2, 0.078 μM to 10 μM) was 1730 nM.

From patent US20230132973A1, “DIHYDRO-SPIRO[INDOLINE-3:1'-iSOQUINOLIN]-2-ONES AS ANTIMALARIAL AGENTS” (The University of Buea, priority 2020, published 2023)
